Experimental data published in ChEMBL document CHEMBL1201862, “PubChem BioAssay data set” (2004).
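Results reflect a 48-hour exposure of cells in 96-well plates to compound at five concentrations. The concentration for 50% growth inhibition is given as GI50.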 Calls of active or inactive are those of the source. No stated cut-off is given here; in the data, active = GI50 up to about 1.1 µM and inactive = higher.

Experiments:
Assay in all cases: growth of human tumour cells (NCI), 48 h
[1] = tested on: MDA-N
[2] = tested on: CAKI-1
[3] = tested on: SN12C
[4] = tested on: K562
[5] = tested on: OVCAR-3
[6] = tested on: SNB-19
[7] = tested on: MDA-MB-435
[8] = tested on: ACHN
[9] = tested on: MCF7
[10] = tested on: RXF 393
[11] = tested on: SF-539
[12] = tested on: A549
[13] = tested on: HCT-116
[14] = tested on: HOP-62
[15] = tested on: HT-29
[16] = tested on: TK-10
[17] = tested on: HL-60
[18] = tested on: SK-OV-3
[19] = tested on: SK-MEL-28

| Structure (SMILES) | GI50 [1] | GI50 [2] | GI50 [3] | GI50 [4] | GI50 [5] | GI50 [6] | GI50 [7] | GI50 [8] | GI50 [9] | GI50 [10] | GI50 [11] | GI50 [12] | GI50 [13] | GI50 [14] | GI50 [15] | GI50 [16] | GI50 [17] | GI50 [18] | GI50 [19] |
| --- | --- | --- | --- | --- | --- | --- | --- | --- | --- | --- | --- | --- | --- | --- | --- | --- | --- | --- | --- |
| CN(C)CCCN1c2ccccc2CCc2cc([N+](=O)[O-])ccc21 | 19.6 µM (inactive) | 26.8 µM (inactive) | 22.9 µM (inactive) | 27.2 µM (inactive) | 20 µM (inactive) | 28.6 µM (inactive) | 21.6 µM (inactive) | 29.4 µM (inactive) | 27.3 µM (inactive) | 14.2 µM (inactive) | 24.1 µM (inactive) | 24.6 µM (inactive) | 20.5 µM (inactive) | 21.8 µM (inactive) | 21.4 µM (inactive) | 28.5 µM (inactive) | – | – | – |
| C[C@H](C1CC2(C)OC2(C)C(=O)O1)[C@H]1CC[C@H]2[C@@H]3[C@@H]4O[C@@H]4[C@@]4(O)CC=CC(=O)[C@]4(C)[C@H]3CC[C@]12C (stereo partly specified) | > 50 µM (inactive) | > 50 µM (inactive) | > 50 µM (inactive) | > 50 µM (inactive) | > 50 µM (inactive) | 29.6 µM (inactive) | > 50 µM (inactive) | > 50 µM (inactive) | > 50 µM (inactive) | 9.71 µM (inactive) | – | > 50 µM (inactive) | > 50 µM (inactive) | 37.8 µM (inactive) | > 50 µM (inactive) | > 50 µM (inactive) | > 50 µM (inactive) | > 50 µM (inactive) | > 50 µM (inactive) |
| Cc1ccc(S(=O)(=O)Nn2c(O)c(C#N)c(-c3ccc(N(C)C)cc3)c(C#N)c2=O)cc1 | > 50 µM (inactive) | > 50 µM (inactive) | > 50 µM (inactive) | > 50 µM (inactive) | – | > 50 µM (inactive) | > 50 µM (inactive) | > 50 µM (inactive) | > 50 µM (inactive) | > 50 µM (inactive) | > 50 µM (inactive) | > 50 µM (inactive) | > 50 µM (inactive) | > 50 µM (inactive) | > 50 µM (inactive) | > 50 µM (inactive) | 28.9 µM (inactive) | 0.142 µM (active) | > 50 µM (inactive) |
| C=CCSC1=N/C(=C\c2cccs2)C(=O)N1CC=C | 42.9 µM (inactive) | > 100 µM (inactive) | 53.1 µM (inactive) | 29.4 µM (inactive) | > 100 µM (inactive) | > 100 µM (inactive) | 60.3 µM (inactive) | 54.6 µM (inactive) | 27.3 µM (inactive) | 16.7 µM (inactive) | > 100 µM (inactive) | 33.7 µM (inactive) | 32.7 µM (inactive) | > 100 µM (inactive) | 32.8 µM (inactive) | > 100 µM (inactive) | – | > 100 µM (inactive) | > 100 µM (inactive) |
| Cn1c2ccccc2n2c(N=O)c(-c3ccccc3)nc12 | 55.1 µM (inactive) | 39.7 µM (inactive) | 69.2 µM (inactive) | > 100 µM (inactive) | 30.1 µM (inactive) | 30.1 µM (inactive) | 38.8 µM (inactive) | > 100 µM (inactive) | 29 µM (inactive) | 49.3 µM (inactive) | – | 21.6 µM (inactive) | 87.9 µM (inactive) | 5.52 µM (inactive) | 27.7 µM (inactive) | 51.8 µM (inactive) | 92.3 µM (inactive) | 67.3 µM (inactive) | > 100 µM (inactive) |
| O=[N+]([O-])c1ccc2c(c1)nc1n2C(c2c(F)cccc2F)SC1 (stereo unspecified) | > 100 µM (inactive) | – | > 100 µM (inactive) | > 100 µM (inactive) | > 100 µM (inactive) | > 100 µM (inactive) | > 100 µM (inactive) | > 100 µM (inactive) | > 100 µM (inactive) | > 100 µM (inactive) | > 100 µM (inactive) | > 100 µM (inactive) | > 100 µM (inactive) | > 100 µM (inactive) | > 100 µM (inactive) | > 100 µM (inactive) | > 100 µM (inactive) | > 100 µM (inactive) | > 100 µM (inactive) |
| CCN(CC)C(=S)N/N=C/c1cc(OC)ccc1O | 6.68 µM (inactive) | – | 5.79 µM (inactive) | 4.52 µM (inactive) | 2.1 µM (inactive) | 8.91 µM (inactive) | 6.18 µM (inactive) | 2.98 µM (inactive) | 3.84 µM (inactive) | 9.04 µM (inactive) | 6.97 µM (inactive) | 4.17 µM (inactive) | 4.86 µM (inactive) | 7.5 µM (inactive) | 7 µM (inactive) | 4.3 µM (inactive) | 2.46 µM (inactive) | 5.21 µM (inactive) | 3.72 µM (inactive) |
| COc1ccc2c(c1)[C@@]13CCCC[C@H]1[C@@H](C2)N(C)CC3=O | 15.3 µM (inactive) | 28.3 µM (inactive) | 21.4 µM (inactive) | 28 µM (inactive) | 17.4 µM (inactive) | 76.9 µM (inactive) | 19 µM (inactive) | 16.6 µM (inactive) | 18.3 µM (inactive) | 15.3 µM (inactive) | – | 19.9 µM (inactive) | 16.2 µM (inactive) | > 100 µM (inactive) | 21.5 µM (inactive) | 19 µM (inactive) | 8.04 µM (inactive) | 16 µM (inactive) | 16.1 µM (inactive) |
| CC(=O)NC1C(OCC(=O)NC(C)C(=O)NC(CCC(=O)NCCCCCNc2ccc([N+](=O)[O-])c3[nH]c4ccccc4c(=O)c23)C(N)=O)C(O)C(CO)OC1(C)OCc1ccccc1 (stereo unspecified) | > 50 µM (inactive) | > 50 µM (inactive) | 19.6 µM (inactive) | 4.5 µM (inactive) | > 50 µM (inactive) | 33.3 µM (inactive) | > 50 µM (inactive) | 31.6 µM (inactive) | > 50 µM (inactive) | 3.48 µM (inactive) | > 50 µM (inactive) | > 50 µM (inactive) | 19.4 µM (inactive) | 14.8 µM (inactive) | 38.6 µM (inactive) | 24 µM (inactive) | – | 39.1 µM (inactive) | – |
| COc1ccc(CCNC(=S)NC=C2C(=O)c3ccccc3C2=O)cc1OC | > 100 µM (inactive) | > 100 µM (inactive) | > 100 µM (inactive) | > 100 µM (inactive) | 0.0982 µM (active) | > 100 µM (inactive) | > 100 µM (inactive) | > 100 µM (inactive) | 89.9 µM (inactive) | > 100 µM (inactive) | 0.433 µM (active) | > 100 µM (inactive) | > 100 µM (inactive) | > 100 µM (inactive) | > 100 µM (inactive) | – | 93.1 µM (inactive) | > 100 µM (inactive) | > 100 µM (inactive) |
| Cc1ccc(NC(=O)/C(Cc2cc(=O)oc3cc(O)ccc23)=N\NC(C)(C)C)cc1C | > 100 µM (inactive) | > 100 µM (inactive) | > 100 µM (inactive) | > 100 µM (inactive) | > 100 µM (inactive) | > 100 µM (inactive) | > 100 µM (inactive) | > 100 µM (inactive) | > 100 µM (inactive) | > 100 µM (inactive) | > 100 µM (inactive) | > 100 µM (inactive) | > 100 µM (inactive) | – | > 100 µM (inactive) | – | > 100 µM (inactive) | > 100 µM (inactive) | > 100 µM (inactive) |
| CCN(CC)c1ccc(/C=c2\nc(-c3ccccc3)n3c2nc2ccccc23)cc1 | 6.25 µM (inactive) | 0.885 µM (active) | 16.8 µM (inactive) | 3.77 µM (inactive) | 9.62 µM (inactive) | 83.8 µM (inactive) | 8.71 µM (inactive) | 15 µM (inactive) | 14.6 µM (inactive) | 16.8 µM (inactive) | 1.48 µM (inactive) | 6.21 µM (inactive) | 3.64 µM (inactive) | 7.19 µM (inactive) | 1.89 µM (inactive) | 17 µM (inactive) | – | 24.4 µM (inactive) | 0.0231 µM (active) |
| Clc1ccc(-c2nnc(-c3c(Cl)c(Cl)c(Cl)c(Cl)c3-c3nc4ccccc4[nH]3)o2)cc1 | 53.5 µM (inactive) | 56.1 µM (inactive) | 46.8 µM (inactive) | 34.3 µM (inactive) | 61.7 µM (inactive) | – | > 100 µM (inactive) | 97.3 µM (inactive) | 35.1 µM (inactive) | 40.7 µM (inactive) | > 100 µM (inactive) | – | 31.6 µM (inactive) | > 100 µM (inactive) | 98.9 µM (inactive) | – | > 100 µM (inactive) | > 100 µM (inactive) | > 100 µM (inactive) |
| CC1=CCC[C@H]2[C@](C)(CC3=CC(=O)C4SCCSC4C3=O)[C@@H](C)CC[C@]12C (stereo partly specified) | 11.4 µM (inactive) | 25.2 µM (inactive) | 14.7 µM (inactive) | 19.9 µM (inactive) | 18.5 µM (inactive) | 19 µM (inactive) | 8.09 µM (inactive) | 18.2 µM (inactive) | 20.5 µM (inactive) | 18.6 µM (inactive) | 21 µM (inactive) | 17.2 µM (inactive) | 13.8 µM (inactive) | 15 µM (inactive) | – | – | – | – | 18 µM (inactive) |
| CCCNC1=Nc2ccccc2[C@@H]2N(C)c3ccccc3C(C)C[C@]12C (stereo partly specified) | 20.5 µM (inactive) | 26.3 µM (inactive) | 37.1 µM (inactive) | 20 µM (inactive) | 19.2 µM (inactive) | 18.6 µM (inactive) | 17.8 µM (inactive) | 23.8 µM (inactive) | 21.3 µM (inactive) | 19.7 µM (inactive) | 16.4 µM (inactive) | 28.8 µM (inactive) | 14.8 µM (inactive) | 16.4 µM (inactive) | 13.2 µM (inactive) | 16 µM (inactive) | 33.3 µM (inactive) | – | 18.3 µM (inactive) |
